The values that follow are results of earlier work, collected in patent US20100022462A1, “APPETITE S[…] COLON CLEANSING COMPOSITION” (priority 2008, published 2010).

SMILES strings stand for the structures.

The test system of the series is lipase. The note with it: background statement on the marketed drug; no test conditions given.

For the molecule `CCCCCCCCCCC[C@@H](C[C@@H]1OC(=O)[C@H]1CCCCCC)OC(=O)[C@H](CC(C)C)NC=O` [XENICAL, orlistat], the “decreasing dietary fat absorption” value is given as 30%.
